According to patent US20200239530A1, “COMPOUNDS AND METHODS OF MODULATING PROTEIN DEGRADATION” (Vividion Therapeutics, Inc., priority 2017, published 2020):

How the values were obtained:
Assay in all cases: Cysteine liganding, probe competition
Assay type in all cases: binding
[1] = target: T1, RNF20 E3 ubiquitin-protein ligase BRE1A (Homo sapiens, UniProt Q5VTR2)
T1 construct: Cells were resuspended in cold PBS on ice and sonicated with a probe sonicator to achieve lysis; endogenous in cells
Outline: (§1)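 Read-out is loss of desthiobiotin iodoacetamide labelling at cysteines, measured on streptavidin-enriched tryptic peptides. Compound preincubation ran 1 hr at 25° C in PBS lysate holding 5 mg/ml proteome before the probe was added.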

[2] = target: T2, BACH2 Transcription regulator protein BACH2 (Homo sapiens, UniProt Q9BYV9)
T2 construct: Cells were resuspended in cold PBS on ice and sonicated with a probe sonicator to achieve lysis; endogenous in cells
T2 sequence (Q9BYV9 whole entry): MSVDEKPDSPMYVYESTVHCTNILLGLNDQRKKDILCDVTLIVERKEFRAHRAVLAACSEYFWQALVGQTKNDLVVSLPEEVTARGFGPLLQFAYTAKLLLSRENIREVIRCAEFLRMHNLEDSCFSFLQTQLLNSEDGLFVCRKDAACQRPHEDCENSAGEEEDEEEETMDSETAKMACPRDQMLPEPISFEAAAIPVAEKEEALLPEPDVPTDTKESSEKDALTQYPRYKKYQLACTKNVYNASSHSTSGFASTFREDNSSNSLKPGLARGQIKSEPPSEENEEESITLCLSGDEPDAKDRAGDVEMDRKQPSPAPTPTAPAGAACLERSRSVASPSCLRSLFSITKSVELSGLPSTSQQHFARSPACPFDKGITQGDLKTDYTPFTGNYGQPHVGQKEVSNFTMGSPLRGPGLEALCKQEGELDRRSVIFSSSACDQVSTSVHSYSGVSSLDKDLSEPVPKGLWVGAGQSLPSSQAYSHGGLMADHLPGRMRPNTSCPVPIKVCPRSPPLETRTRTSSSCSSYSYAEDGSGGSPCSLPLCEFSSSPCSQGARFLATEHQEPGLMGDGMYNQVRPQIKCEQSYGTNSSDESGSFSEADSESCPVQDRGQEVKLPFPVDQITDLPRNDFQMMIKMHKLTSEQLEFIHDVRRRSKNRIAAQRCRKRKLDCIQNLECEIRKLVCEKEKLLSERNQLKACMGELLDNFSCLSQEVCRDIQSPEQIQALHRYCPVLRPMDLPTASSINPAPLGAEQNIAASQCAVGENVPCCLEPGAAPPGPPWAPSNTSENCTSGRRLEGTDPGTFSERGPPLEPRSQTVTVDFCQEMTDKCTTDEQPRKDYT
Outline: as §1

[3] = target: T3, RNF40 E3 ubiquitin-protein ligase BRE1B (Homo sapiens, UniProt O75150)
T3 construct: Cells were resuspended in cold PBS on ice and sonicated with a probe sonicator to achieve lysis; endogenous in cells
T3 sequence (O75150 whole entry): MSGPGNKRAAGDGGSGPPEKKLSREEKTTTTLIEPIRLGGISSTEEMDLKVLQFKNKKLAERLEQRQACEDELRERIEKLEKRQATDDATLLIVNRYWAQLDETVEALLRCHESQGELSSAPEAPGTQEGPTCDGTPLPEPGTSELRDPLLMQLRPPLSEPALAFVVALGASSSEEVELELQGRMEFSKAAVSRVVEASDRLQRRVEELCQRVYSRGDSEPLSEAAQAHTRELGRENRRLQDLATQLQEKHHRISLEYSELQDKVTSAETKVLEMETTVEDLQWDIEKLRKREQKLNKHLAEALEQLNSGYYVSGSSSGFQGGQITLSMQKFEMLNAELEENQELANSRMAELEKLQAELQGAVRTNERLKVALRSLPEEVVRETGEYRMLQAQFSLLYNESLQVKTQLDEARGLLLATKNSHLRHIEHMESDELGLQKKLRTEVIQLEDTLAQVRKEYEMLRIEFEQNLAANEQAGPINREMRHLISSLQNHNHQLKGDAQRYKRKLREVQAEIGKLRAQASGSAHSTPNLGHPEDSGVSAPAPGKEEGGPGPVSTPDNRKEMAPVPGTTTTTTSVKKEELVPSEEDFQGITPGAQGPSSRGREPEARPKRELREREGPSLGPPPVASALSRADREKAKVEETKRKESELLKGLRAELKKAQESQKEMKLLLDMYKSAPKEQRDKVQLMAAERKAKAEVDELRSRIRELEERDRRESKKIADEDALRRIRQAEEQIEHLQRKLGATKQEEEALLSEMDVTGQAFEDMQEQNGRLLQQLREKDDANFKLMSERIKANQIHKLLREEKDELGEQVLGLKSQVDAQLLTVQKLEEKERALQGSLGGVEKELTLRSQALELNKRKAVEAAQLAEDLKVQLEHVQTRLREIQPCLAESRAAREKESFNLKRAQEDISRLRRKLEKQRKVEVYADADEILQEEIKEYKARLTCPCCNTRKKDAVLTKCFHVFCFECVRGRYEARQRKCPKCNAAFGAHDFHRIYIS
Outline: as §1

[4] = target: T4, NOP56 Nucleolar protein 56 (Homo sapiens, UniProt O00567)
T4 construct: Cells were resuspended in cold PBS on ice and sonicated with a probe sonicator to achieve lysis; endogenous in cells
T4 sequence (O00567 1-594): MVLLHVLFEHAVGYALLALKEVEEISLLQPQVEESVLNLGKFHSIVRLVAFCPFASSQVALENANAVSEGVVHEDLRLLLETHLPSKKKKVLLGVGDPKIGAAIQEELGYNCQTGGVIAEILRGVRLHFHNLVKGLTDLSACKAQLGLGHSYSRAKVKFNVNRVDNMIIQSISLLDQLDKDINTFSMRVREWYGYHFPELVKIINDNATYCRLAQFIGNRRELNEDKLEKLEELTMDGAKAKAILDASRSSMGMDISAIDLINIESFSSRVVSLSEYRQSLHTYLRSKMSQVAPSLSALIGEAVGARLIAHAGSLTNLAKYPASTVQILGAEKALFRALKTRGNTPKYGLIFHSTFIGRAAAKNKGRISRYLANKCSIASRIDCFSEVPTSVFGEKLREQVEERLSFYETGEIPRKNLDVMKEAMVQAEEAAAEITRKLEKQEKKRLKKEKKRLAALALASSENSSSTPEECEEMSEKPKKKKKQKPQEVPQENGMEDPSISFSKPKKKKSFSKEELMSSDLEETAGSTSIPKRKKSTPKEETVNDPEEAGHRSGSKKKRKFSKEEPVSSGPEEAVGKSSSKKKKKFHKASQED
Outline: as §1

[5] = target: T5, PIAS4 E3 SUMO-protein ligase PIAS4 (Homo sapiens, UniProt Q8N2W9); details: for Liganded: PIAS4 Res# 326, uniprot Q8N2W9
T5 construct: Cells were resuspended in cold PBS on ice and sonicated with a probe sonicator to achieve lysis; endogenous in cells
T5 sequence (Q8N2W9 1-510): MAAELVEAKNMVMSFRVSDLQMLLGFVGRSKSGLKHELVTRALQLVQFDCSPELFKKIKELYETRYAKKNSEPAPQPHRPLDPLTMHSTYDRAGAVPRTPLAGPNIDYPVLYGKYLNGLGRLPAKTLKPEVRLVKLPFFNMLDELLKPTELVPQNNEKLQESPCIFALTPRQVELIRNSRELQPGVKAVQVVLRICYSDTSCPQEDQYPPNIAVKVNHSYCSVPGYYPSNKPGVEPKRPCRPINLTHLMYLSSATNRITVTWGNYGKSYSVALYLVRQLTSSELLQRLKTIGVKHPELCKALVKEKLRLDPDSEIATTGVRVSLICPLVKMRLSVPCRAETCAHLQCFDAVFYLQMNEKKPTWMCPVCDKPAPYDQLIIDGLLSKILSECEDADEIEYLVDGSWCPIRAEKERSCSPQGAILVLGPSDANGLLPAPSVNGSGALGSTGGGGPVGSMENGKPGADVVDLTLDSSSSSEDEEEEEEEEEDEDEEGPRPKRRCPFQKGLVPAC
Outline: as §1

[6] = uniprot O00567, in % (unit assumed)

T1 sequence (Q5VTR2 whole entry): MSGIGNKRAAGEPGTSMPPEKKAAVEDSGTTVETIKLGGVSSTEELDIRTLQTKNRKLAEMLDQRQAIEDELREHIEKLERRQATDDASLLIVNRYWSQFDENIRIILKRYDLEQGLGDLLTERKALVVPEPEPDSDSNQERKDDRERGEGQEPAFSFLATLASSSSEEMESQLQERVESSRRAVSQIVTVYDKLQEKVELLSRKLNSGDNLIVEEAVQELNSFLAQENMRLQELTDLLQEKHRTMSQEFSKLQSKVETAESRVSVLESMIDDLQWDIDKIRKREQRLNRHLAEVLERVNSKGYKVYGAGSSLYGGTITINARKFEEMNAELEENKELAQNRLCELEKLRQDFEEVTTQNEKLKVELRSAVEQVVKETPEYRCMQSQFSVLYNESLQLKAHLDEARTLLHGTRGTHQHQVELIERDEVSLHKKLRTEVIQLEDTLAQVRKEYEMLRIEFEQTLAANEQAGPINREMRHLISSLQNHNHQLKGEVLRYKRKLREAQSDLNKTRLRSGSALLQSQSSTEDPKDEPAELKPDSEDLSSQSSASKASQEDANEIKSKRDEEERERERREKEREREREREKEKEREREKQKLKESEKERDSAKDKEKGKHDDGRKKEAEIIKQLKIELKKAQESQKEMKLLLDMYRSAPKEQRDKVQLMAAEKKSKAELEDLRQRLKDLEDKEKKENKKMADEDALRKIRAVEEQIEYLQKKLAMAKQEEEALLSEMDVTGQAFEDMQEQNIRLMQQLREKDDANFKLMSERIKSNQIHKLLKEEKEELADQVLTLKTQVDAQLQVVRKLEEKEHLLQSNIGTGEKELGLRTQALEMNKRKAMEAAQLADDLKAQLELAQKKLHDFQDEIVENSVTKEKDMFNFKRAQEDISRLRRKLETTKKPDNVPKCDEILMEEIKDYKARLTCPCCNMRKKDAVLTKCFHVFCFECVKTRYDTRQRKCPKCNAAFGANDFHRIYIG

`COc1ccc2c(c1)CCCN2C(=O)CCl` [KB02] was tested, and the Liganded ([1]; RNF20 Res# 383, uniprot Q5VTR2) was “YES”, the Liganded ([2]; BACH2 Res# 370, uniprot Q9BYV9) was “YES” and the percent_inhibition ([3]; 500 uM, UniProt O75150) was 24%. The Liganded ([3]; RNF40 Res# 890, uniprot O75150) was “YES”, the Liganded ([4]; NOP56 Res# 211, uniprot O00567) was “YES” and the Liganded [5] was “YES”.

With `O=C(CCl)Nc1cc(C(F)(F)F)cc(C(F)(F)F)c1` [KBO3] the “100 Max” value ([1]; uniprot Q5VTR2) was 11.0, the 100 ave ([1]; uniprot Q5VTR2) was 0.6 and the “500 Max” value ([1]; uniprot Q5VTR2) was 37.3. For the same compound, the 500 ave ([1]; uniprot Q5VTR2) was 32.6, the “100 Max” value ([2]; uniprot Q9BYV9) was 25.4 and the 100 ave ([2]; uniprot Q9BYV9) was 17.2. The 500 ave ([2]; uniprot Q9BYV9) was 62.8, the 500 Max ([2]; uniprot Q9BYV9, unit assumed) was 62.8% and the 100 ave ([3]; uniprot O75150) was −9.9. For the same compound, the “500 Max” value ([3]; uniprot O75150) was 29.2, the 500 ave ([3]; uniprot O75150) was 24.5 and the “100 Max” value ([3]; uniprot O75150, in % (unit assumed)) was −5.2. The 100 ave ([4]; uniprot O00567) was 27.36, the 500 ave ([4]; uniprot O00567) was 68.12 and the “100 Max” value [4, 6] was 51.21. The “500 Max” value [4, 6] was 68.12, the Liganded [5] was “YES” and the “KB03_100 uM_percent_inhibition” value ([5]; UniProt Q8N2W9, 100 uM) was 80%. For the same compound, the “100 Max” value ([5]; uniprot Q8N2W9) was 35.5, the 100 ave ([5]; uniprot Q8N2W9) was 30.1 and the “500 Max” value ([5]; uniprot Q8N2W9) was 87.0. For the same compound, the 500 ave ([5]; uniprot Q8N2W9) was 75.4.
